Test results from patent publication EP0013144A1, “Substituted diphenylamine derivatives, compositions and herbicidal uses thereof, and processes for their preparation” (ICI AUSTRALIA LIMITED, priority 1978, dated 1980).

How the values were obtained:
Assay type in all cases: in vivo
Maize [1] = experiment: Post-emergence herbicidal test, young pot plants (Example 33); details: 2.0 kg/ha, after 14 days
Protocol: (§1) The compounds were formulated for test by mixing an appropriate amount with 5 ml of an emulsion prepared by diluting 160 ml of a solution containing 21.S g per litre of "Span" 80 and 78.2 g per litre of "Tween" 20 in methylcyclohexanone to 500 ml with water. "Span" 80 is a Trade Mark for a surface-active agent comprising sorbitan monolaurate. "Tween" 20 is a Trade Mark for a surface-active agent comprising a condensate of sorbitan monolaurate with 20 molar proportions of ethylene oxide. Each 5 ml emulsion containing a test compound was'then diluted to 40 ml with water and sprayed on to young pot plants (post-emergence test) of the species named in Table 5 below. Damage to test plants was assessed after 14 days on a scale of 0 to 5 where 0 is 0 to 20% damage and 5 is complete kill. In a test for pre-emergence herbicidal activity, seeds of the test plants were sown in a shallow slit formed in the surface of soil in fibre trays. The surface was then levelled and sprayed, and fresh soil then spread thinly over the sprayed surface. Assessment of herbicidal damage was carried out after 21 days using the same scale of 0 to 5 as the post-emergence test. In both cases the degree of herbicidal damage was assessed by comparison with untreated control plants. A dash (-) means that no experiment was carried out.

Rice [2] = experiment: as above; details: 2.0 kg/ha, after 14 days
Protocol: as §1

Maize [3] = experiment: Pre-emergence herbicidal test, fibre trays (Example 33); set-up: key: 0 = 0-20% damage, 5 = complete kill, vs untreated control; details: 2.0 kg/ha, after 21 days
Protocol: as §1

Winter wheat [4] = experiment: Post-emergence herbicidal test, young pot plants (Example 33); set-up: key: 0 = 0-20% damage, 5 = complete kill, vs untreated control; details: 2.0 kg/ha, after 14 days
Protocol: as §1

Amaranthus retroflexus = experiment: as above; details: 2.0 kg/ha, after 14 days
Protocol: as §1

Polygonum aviculare = experiment: as above; details: 2.0 kg/ha, after 14 days
Protocol: as §1

Sugar beet [5] = experiment: as above; details: 2.0 kg/ha, after 14 days
Protocol: as §1

Senecio vulgaris [6] = experiment: as above; details: 2.0 kg/ha, after 14 days
Protocol: as §1

Cotton [7] = experiment: as above; details: 2.0 kg/ha, after 14 days
Protocol: as §1

Rape [8] = experiment: as above; details: 2.0 kg/ha, after 14 days
Protocol: as §1

Ipomea purpurea = experiment: as above; details: 2.0 kg/ha, after 14 days
Protocol: as §1

Soy bean [9] = experiment: as above; details: 2.0 kg/ha, after 14 days
Protocol: as §1

Chenopodium album = experiment: as above; details: 2.0 kg/ha, after 14 days
Protocol: as §1

Sugar beet [10] = experiment: Pre-emergence herbicidal test, fibre trays (Example 33); details: 2.0 kg/ha, after 21 days
Protocol: as §1

Senecio vulgaris [11] = experiment: as above; details: 2.0 kg/ha, after 21 days
Protocol: as §1

Cotton [12] = experiment: as above; details: 2.0 kg/ha, after 21 days
Protocol: as §1

Rape [13] = experiment: as above; details: 2.0 kg/ha, after 21 days
Protocol: as §1

Winter wheat [14] = experiment: as above; details: 2.0 kg/ha, after 21 days
Protocol: as §1

Soy bean [15] = experiment: as above; details: 2.0 kg/ha, after 21 days
Protocol: as §1

Rice [16] = experiment: as above; details: 2.0 kg/ha, after 21 days
Protocol: as §1

Wheat [17] = experiment: Post-emergence herbicidal activity (Example 32); set-up: key: 0-3 scale: 0 = 0-25% damage, 3 = 75-99% kill, 3+ = 100% kill; details: 3 weeks after spraying
Protocol: (§2) Concentrated formulations of the compounds of the invention were prepared by: • a) in the case of oils and waxy solids, dissolving the compound in toluene containing 7% v/v "Teric" N13 ("Teric" is a Trade MarK and "Teric" N13, a product of ethoxylation of nonylphenol, is available from ICI Australia Limited) and 3% v/v "Kemmat" SC15B ("Kemmat" is a Trade Mark and "Kemmat" SC15B is a formulation of calcium dodecylbenzene sulfonate); or • b) in the case of crystalline solids, adding 5 parts by weight of the compound and 1 part by weight of . ''Dyapol" PT ("Dyapol" is a Trade Mark and "Dyapol" PT is an anionic suspending agent) to 94 parts by weight of an aqueous solution containing 0.25% v/v of "Teric" N8 (a product of ethoxylation of nonylphenol) and ball-milling the mixture to produce a stable suspension. The emulsifiable concentrates and suspensions were then diluted with water to give an aqueous composition of the required concentration suitable for use in the evaluation of the pre-emergence and post-emergence herbicidal activity of the compounds of the invention.
(§3) The post-emergent herbicidal activity of the compounds of the invention formulated as described in Example 30 was assessed by the following procedure.
(§4) The seeds of the test species were sown in rows 2 cm deep in soil contained in seed boxes. The monocotyledonous plants and the dicotyledonous plants were sown in separate seed boxes in duplicate. The four seed boxes were placed in a glasshouse, lightly watered with an overhead spray to initiate germination and then sub-irrigated as required for optimum plant growth. After the plants had grown to a height of about 10 to 12.5 cm one box of each of the monocotyledonous plants and the dicotyledonous plants was removed from the glasshouse and sprayed with the required quantity of a composition of the invention. After spraying the boxes were returned to the glasshouse for further 3 weeks and the effects of the treatment was visually assessed by comparison with the untreated controls. The results are presented in Table 4 where the damage to plants is rated on a scale of from 0 to 3 where 0 represents 0 to 25% damage, 3 represents 75 to 99% kill and 3+ represents 100% kill. A dash (-) means that no experiment was carried out.

Japanese millet [18] = experiment: Pre-emergence herbicidal activity (Example 31); details: after three weeks
Protocol: as §2
(§5) The pre-emergent herbicidal activity of the compounds of the invention formulated as described in Example 30 was assessed by the following procedure.
(§6) The seeds of the test species were sown in rows 2 cm deep in soil contained in seed boxes. The monocotyledonous plants and the dicotyledonous plants were sprayed with the required quantity of a composition of the invention. Two duplicate seed Doxes were prepared in the same manner but were not sprayed with a composition of the invention and were used for comparison purposes. All the boxes were placed in a glasshouse, lightly watered with an overhead spray to initiate germination and then sub-irrigated as required for optimum plant growth. After three weeks the boxes were removed from the glasshouse and the effect of the treatment was visually assessed. The results are presented in Table 3 where the damage to plants is rated on a scale of from 0 to 3 where 0 represents from 0 to 25% damage, 3 represents 75 to 99% kill and 3+ represents 100% kill.
(§7) A dash (-) means that no experiment was carried out.

Wild Oats [19] = experiment: Pre-emergence herbicidal activity (Example 31); details: after three weeks
Protocol: as §2, §5, §6, §7

Mustard [20] = experiment: Pre-emergence herbicidal activity (Example 31); details: after three weeks
Protocol: as §2, §5, §6, §7

Sunflower [21] = experiment: Pre-emergence herbicidal activity (Example 31); details: after three weeks
Protocol: as §2, §5, §6, §7

Ipomea [22] = experiment: Pre-emergence herbicidal activity (Example 31); details: after three weeks
Protocol: as §2, §5, §6, §7

Japanese millet [23] = experiment: Post-emergence herbicidal activity (Example 32); details: 3 weeks after spraying
Protocol: as §2, §3, §4

Wild Oats [24] = experiment: Post-emergence herbicidal activity (Example 32); details: 3 weeks after spraying
Protocol: as §2, §3, §4

Mustard [25] = experiment: Post-emergence herbicidal activity (Example 32); details: 3 weeks after spraying
Protocol: as §2, §3, §4

Sunflower [26] = experiment: Post-emergence herbicidal activity (Example 32); details: 3 weeks after spraying
Protocol: as §2, §3, §4

Ipomea [27] = experiment: Post-emergence herbicidal activity (Example 32); details: 3 weeks after spraying
Protocol: as §2, §3, §4

Ryegrass [28] = experiment: Post-emergence herbicidal activity (Example 32); details: 3 weeks after spraying
Protocol: as §2, §3, §4

Wheat [29] = experiment: Pre-emergence herbicidal activity (Example 31); set-up: key: 0-3 scale: 0 = 0-25% damage, 3 = 75-99% kill, 3+ = 100% kill; details: after three weeks
Protocol: as §2, §5, §6, §7

Ryegrass [30] = experiment: Pre-emergence herbicidal activity (Example 31); set-up: key: 0-3 scale: 0 = 0-25% damage, 3 = 75-99% kill, 3+ = 100% kill; details: after three weeks
Protocol: as §2, §5, §6, §7

COC(=O)C(C)Oc1ccc(Nc2ccc(Cl)cc2)cc1 (centres unmarked) [Compound 12, Methyl 2-[4-(4-chloroanilino)prienoxy]propionate]
damage to test plants, Mz (Maize [1]): 2 | damage to test plants, Rc (Rice [2]): 0 (0 is 0 to 20% damage) | herbicidal damage, Mz (Maize [3]): 0 (0 is 0 to 20% damage) | damage to test plants, Ww (Winter wheat [4]): 0 (0 is 0 to 20% damage) | damage to test plants, Am (Amaranthus retroflexus): 2 | damage to test plants, Pi (Polygonum aviculare): 0 (0 is 0 to 20% damage) | damage to test plants, Sb (Sugar beet [5]): 1 | damage to test plants, Sn (Senecio vulgaris [6]): 1 | damage to test plants, Ct (Cotton [7]): 0 (0 is 0 to 20% damage) | damage to test plants, Rp (Rape [8]): 0 (0 is 0 to 20% damage) | damage to test plants, Ip (Ipomea purpurea): 0 (0 is 0 to 20% damage) | damage to test plants, Sy (Soy bean [9]): 0 (0 is 0 to 20% damage) | damage to test plants, Ca (Chenopodium album): 0 (0 is 0 to 20% damage) | herbicidal damage, Sb (Sugar beet [10]): 2 | herbicidal damage, Sn (Senecio vulgaris [11]): 0 (0 is 0 to 20% damage) | herbicidal damage, Ct (Cotton [12]): 1 | herbicidal damage, Rp (Rape [13]): 1 | herbicidal damage, Ww (Winter wheat [14]): 0 (0 is 0 to 20% damage) | herbicidal damage, Sy (Soy bean [15]): 1 | herbicidal damage, Rc (Rice [16]): 0 (0 is 0 to 20% damage)

COC(=O)C(C)Oc1ccc(N(C)c2ccc(Cl)cc2)cc1 (centres unmarked) [Compound 13, Methyl 2-[4-(4-chloro-N-methylanilino)phenoxy]-propionate]
damage to plants, Wh (Wheat [17]; 1 kg/ha): 0 (0 represents 0 to 25% damage) | damage to plants, Wh (Wheat [17]; 5 kg/ha): 0 (0 represents 0 to 25% damage) | damage to plants, Jm (Japanese millet [18]; 1 kg/ha): 0 (0 represents from 0 to 25% damage) | damage to plants, Jm (Japanese millet [18]; 5 kg/ha): 0 (0 represents from 0 to 25% damage) | damage to plants, Ot (Wild Oats [19]; 1 kg/ha): 0 (0 represents from 0 to 25% damage) | damage to plants, Ot (Wild Oats [19]; 5 kg/ha): 0 (0 represents from 0 to 25% damage) | damage to plants, Ms (Mustard [20]; 1 kg/ha): 0 (0 represents from 0 to 25% damage) | damage to plants, Ms (Mustard [20]; 5 kg/ha): 0 (0 represents from 0 to 25% damage) | damage to plants, Sf (Sunflower [21]; 1 kg/ha): 0 (0 represents from 0 to 25% damage) | damage to plants, Sf (Sunflower [21]; 5 kg/ha): 0 (0 represents from 0 to 25% damage) | damage to plants, Ip (Ipomea [22]; 1 kg/ha): 0 (0 represents from 0 to 25% damage) | damage to plants, Ip (Ipomea [22]; 5 kg/ha): 0 (0 represents from 0 to 25% damage) | damage to plants, Jm (Japanese millet [23]; 1 kg/ha): 3 (3 represents 75 to 99% kill) | damage to plants, Jm (Japanese millet [23]; 5 kg/ha): 3 (3 represents 75 to 99% kill) | damage to plants, Ot (Wild Oats [24]; 1 kg/ha): 0 (0 represents 0 to 25% damage) | damage to plants, Ot (Wild Oats [24]; 5 kg/ha): 0 (0 represents 0 to 25% damage) | damage to plants, Ms (Mustard [25]; 1 kg/ha): 0 (0 represents 0 to 25% damage) | damage to plants, Ms (Mustard [25]; 5 kg/ha): 0 (0 represents 0 to 25% damage) | damage to plants, Sf (Sunflower [26]; 1 kg/ha): 0 (0 represents 0 to 25% damage) | damage to plants, Sf (Sunflower [26]; 5 kg/ha): 0 (0 represents 0 to 25% damage) | damage to plants, Ip (Ipomea [27]; 1 kg/ha): 0 (0 represents 0 to 25% damage) | damage to plants, Ip (Ipomea [27]; 5 kg/ha): 0 (0 represents 0 to 25% damage) | damage to plants, Rg (Ryegrass [28]; 1 kg/ha): 1 | damage to plants, Rg (Ryegrass [28]; 5 kg/ha): 3 (3 represents 75 to 99% kill) | damage to plants, Wh (Wheat [29]; 1 kg/ha): 0 (0 represents from 0 to 25% damage) | damage to plants, Wh (Wheat [29]; 5 kg/ha): 0 (0 represents from 0 to 25% damage) | damage to plants, Rg (Ryegrass [30]; 1 kg/ha): 0 (0 represents from 0 to 25% damage) | damage to plants, Rg (Ryegrass [30]; 5 kg/ha): 1

CCCCSC(=O)C(C)Oc1ccc(Nc2ccc(C(F)(F)F)cc2[N+](=O)[O-])cc1 (centres unmarked) [Compound 62]
damage to plants, Wh (Wheat [17]; 1 kg/ha): 3 (3 represents 75 to 99% kill) | damage to plants, Jm (Japanese millet [18]; 1 kg/ha): 2 | damage to plants, Ot (Wild Oats [19]; 1 kg/ha): 1 | damage to plants, Ms (Mustard [20]; 1 kg/ha): 0 (0 represents from 0 to 25% damage) | damage to plants, Sf (Sunflower [21]; 1 kg/ha): 0 (0 represents from 0 to 25% damage) | damage to plants, Ip (Ipomea [22]; 1 kg/ha): 0 (0 represents from 0 to 25% damage) | damage to plants, Jm (Japanese millet [23]; 1 kg/ha): 3+ (3+ represents 100% kill) | damage to plants, Ot (Wild Oats [24]; 1 kg/ha): 3 (3 represents 75 to 99% kill) | damage to plants, Ms (Mustard [25]; 1 kg/ha): 0 (0 represents 0 to 25% damage) | damage to plants, Sf (Sunflower [26]; 1 kg/ha): 0 (0 represents 0 to 25% damage) | damage to plants, Ip (Ipomea [27]; 1 kg/ha): 0 (0 represents 0 to 25% damage) | damage to plants, Rg (Ryegrass [28]; 1 kg/ha): 3+ (3+ represents 100% kill) | damage to plants, Wh (Wheat [29]; 1 kg/ha): 0 (0 represents from 0 to 25% damage) | damage to plants, Rg (Ryegrass [30]; 1 kg/ha): 2
